Results: the RepoRT retention time repository (doi:10.1016/j.jchromb.2020.122105)
Each block holds one compound with its values, some of them ahead of it.

Key:
Conditions in all cases: stereoisomer not certain
[1] = RP, Waters CORTECS T3, 100 × 2.1 mm, 2.7 µm, 0.25 mL/min, estimated dead time 0.88 min; A: water + 0.1% formic acid, pH 3; B: methanol + 0.1% formic acid, pH 3; gradient (min/%B) 0/0 1/0 6/5 30/100 35/100 35.1/0 40/0
[2] = RP, Waters ACQUITY UPLC BEH C18, 100 × 2.1 mm, 1.7 µm, 0.2 mL/min, estimated dead time 1.1 min; A: water + 0.025% formic acid + 20 mM ammonium acetate + 0.055% ammonium hydroxide, pH 7; B: methanol; gradient (min/%B) 0/5 5/5 25/100 30/100 30.1/5 35/5
[3] = RP, Waters CORTECS T3, 100 × 2.1 mm, 2.7 µm, 0.15 mL/min, estimated dead time 1.5 min; A: water + 0.1% formic acid, pH 3; B: methanol + 0.1% formic acid, pH 3; gradient (min/%B) 0/0 1/0 6/5 30/100 35/100 35.1/0 40/0
[4] = RP, Waters ACQUITY UPLC BEH C18, 100 × 2.1 mm, 1.7 µm, 0.1 mL/min, estimated dead time 2.2 min; A: water + 0.1% formic acid, pH 3; B: methanol + 0.1% formic acid, pH 3; gradient (min/%B) 0/5 5/5 25/100 30/100 30.1/5 35/5
[5] = RP, Waters CORTECS T3, 100 × 2.1 mm, 2.7 µm, 0.3 mL/min, estimated dead time 0.73 min; A: water + 0.1% formic acid, pH 3; B: methanol + 0.1% formic acid, pH 3; gradient (min/%B) 0/0 5/0 25/100 30/100 30.1/0 35/0
[6] = RP, Waters CORTECS T3, 100 × 2.1 mm, 2.7 µm, 0.3 mL/min, estimated dead time 0.73 min; A: water + 0.1% formic acid, pH 3; B: methanol + 0.1% formic acid, pH 3; gradient (min/%B) 0/5 5/5 25/95 25.1/100 35/100 35.1/5 45/5
[7] = RP, Waters CORTECS T3, 100 × 2.1 mm, 2.7 µm, 0.1 mL/min, estimated dead time 2.2 min; A: water + 0.1% formic acid, pH 3; B: methanol + 0.1% formic acid, pH 3; gradient (min/%B) 0/5 5/5 25/95 25.1/100 35/100 35.1/5 45/5
[8] = RP, Waters CORTECS T3, 100 × 2.1 mm, 2.7 µm, 0.3 mL/min, estimated dead time 0.73 min; A: water + 0.1% formic acid, pH 3; B: methanol + 0.1% formic acid, pH 3; gradient (min/%B) 0/5 5/5 25/100 30/100 30.1/5 35/5
[9] = RP, Waters CORTECS T3, 100 × 2.1 mm, 2.7 µm, 0.1 mL/min, estimated dead time 2.2 min; A: water + 0.1% formic acid, pH 3; B: methanol + 0.1% formic acid, pH 3; gradient (min/%B) 0/0 1/0 6/5 30/100 35/100 35.1/0 40/0
[10] = RP, Waters CORTECS T3, 100 × 2.1 mm, 2.7 µm, 0.3 mL/min, estimated dead time 0.73 min; A: water + 0.1% formic acid, pH 3; B: methanol + 0.1% formic acid, pH 3; gradient (min/%B) 0/0 1/0 6/5 30/100 35/100 35.1/0 40/0
[11] = RP, Waters CORTECS T3, 100 × 2.1 mm, 2.7 µm, 0.2 mL/min, estimated dead time 1.1 min; A: water + 0.1% formic acid, pH 3; B: methanol + 0.1% formic acid, pH 3; gradient (min/%B) 0/0 1/0 6/5 30/100 35/100 35.1/0 40/0
[12] = RP, Thermo Scientific Hypercarb, 150 × 2.1 mm, 5 µm, 0.1 mL/min, estimated dead time 3.3 min; A: water + 0.1% formic acid, pH 3; B: methanol + 0.1% formic acid, pH 3; gradient (min/%B) 0/5 5/5 20/100 35/100 35.1/5 45/5
[13] = RP, Waters CORTECS T3, 100 × 2.1 mm, 2.7 µm, 0.2 mL/min, estimated dead time 1.1 min; A: water + 0.045% formic acid + 0.11% ammonium hydroxide, pH 7; B: methanol; gradient (min/%B) 0/5 5/5 25/95 25.1/100 35/100 35.1/5 45/5
[14] = RP, Waters CORTECS T3, 100 × 2.1 mm, 2.7 µm, 0.25 mL/min, estimated dead time 0.88 min; A: water + 0.1% formic acid, pH 3; B: methanol + 0.1% formic acid, pH 3; gradient (min/%B) 0/5 5/5 25/95 25.1/100 35/100 35.1/5 45/5
[15] = RP, Waters CORTECS T3, 100 × 2.1 mm, 2.7 µm, 0.2 mL/min, estimated dead time 1.1 min; A: water + 0.1% formic acid, pH 3; B: methanol + 0.1% formic acid, pH 3; gradient (min/%B) 0/5 5/5 25/95 25.1/100 35/100 35.1/5 45/5
[16] = RP, Waters CORTECS T3, 100 × 2.1 mm, 2.7 µm, 0.3 mL/min, estimated dead time 0.73 min; A: water + 0.1% formic acid, pH 3; B: methanol + 0.1% formic acid, pH 3; gradient (min/%B) 0/0 1/0 6/5 30/100 35/100 35.1/0 40/0; remark: listed apart in the source
[17] = HILIC, Waters XBridge BEH Amide, 100 × 2.1 mm, 2.5 µm, 0.5 mL/min, estimated dead time 0.44 min; A: water + 0.1% acetic acid + 10 mM ammonium acetate, pH 4; B: 5% water + 95% acetonitrile + 0.1% acetic acid + 10 mM ammonium acetate, pH 4; gradient (min/%B) 0/95 5/95 20/57 25/57 30/95 40/95
[18] = RP, Waters CORTECS T3, 100 × 2.1 mm, 2.7 µm, 0.2 mL/min, estimated dead time 1.1 min; A: water + 0.1% formic acid, pH 3; B: methanol + 0.1% formic acid, pH 3; gradient (min/%B) 0/0 1/0 6/5 30/100 35/100 35.1/0 40/0; remark: listed apart in the source
[19] = HILIC, Merck SeQuant ZIC-HILIC, 150 × 2.1 mm, 5 µm, 0.75 mL/min, estimated dead time 0.44 min; A: water + 0.1% acetic acid + 10 mM ammonium acetate, pH 4; B: 5% water + 95% acetonitrile + 0.1% acetic acid + 10 mM ammonium acetate, pH 4; gradient (min/%B) 0/95 5/95 20/57 25/57 30/95 40/95
[20] = RP, Waters ACQUITY UPLC BEH C18, 100 × 2.1 mm, 1.7 µm, 0.2 mL/min, estimated dead time 1.1 min; A: water + 0.025% formic acid + 20 mM ammonium acetate + 0.055% ammonium hydroxide, pH 7; B: methanol; gradient (min/%B) 0/5 5/5 25/100 30/100 30.1/5 35/5; remark: listed apart in the source
[21] = RP, Waters ACQUITY UPLC BEH C18, 100 × 2.1 mm, 1.7 µm, 0.2 mL/min, estimated dead time 1.1 min; A: water + 0.1% formic acid, pH 3; B: methanol + 0.1% formic acid, pH 3; gradient (min/%B) 0/5 5/5 25/100 30/100 30.1/5 35/5
[22] = RP, Waters CORTECS T3, 100 × 2.1 mm, 2.7 µm, 0.3 mL/min, estimated dead time 0.73 min; A: water + 0.1% formic acid, pH 3; B: methanol + 0.1% formic acid, pH 3; gradient (min/%B) 0/0 5/0 25/100 30/100 30.1/0 35/0; remark: listed apart in the source
[23] = RP, Waters ACQUITY UPLC BEH C18, 100 × 2.1 mm, 1.7 µm, 0.1 mL/min, estimated dead time 2.2 min; A: water + 0.045% formic acid + 0.11% ammonium hydroxide, pH 7; B: methanol; gradient (min/%B) 0/5 5/5 25/95 25.1/100 35/100 35.1/5 45/5

SMILES: Nc1cccc2ccccc12 [1-NAPHTHYLAMINE]
LC retention time [1]: 12.6 min
LC retention time [2]: 14.7 min
LC retention time [3]: 15.2 min
LC retention time [4]: 16.5 min
LC retention time [5]: 11.5 min
LC retention time [6]: 10.3 min
LC retention time [7]: 16.1 min
LC retention time [8]: 10.2 min
LC retention time [9]: 12.1 min
LC retention time [10]: 11.8 min
LC retention time [11]: 13.5 min
LC retention time [12]: 30.6 min
LC retention time [13]: 14.5 min

LC retention time [14]: 1.08 min
LC retention time [15]: 2.67 min
LC retention time [16]: 0.92 min
LC retention time [17]: 13.3 min
LC retention time [18]: 1.35 min
SMILES: O=c1ccn(C2CC(O)C(COP(=O)(O)O)O2)c(=O)[nH]1 (stereo not drawn) [2'-DEOXYURIDINE 5'-MONOPHOSPHATE]

LC retention time [17]: 1.7 min
LC retention time [4]: 5.19 min
LC retention time [19]: 1.46 min
SMILES: O=c1[nH]c(=O)c2nccnc2[nH]1 [2,4-DIHYDROXYPTERIDINE]

LC retention time [20]: 8.78 min
SMILES: CC(C)=CC(=O)SCCNC(=O)CCNC(=O)C(O)C(C)(C)COP(=O)(O)OP(=O)(O)OCC1OC(n2cnc3c(N)ncnc32)C(O)C1OP(=O)(O)O (stereo not drawn) [3-METHYLCROTONYL-COA]

LC retention time [14]: 1.06 min
LC retention time [21]: 1.41 min
LC retention time [16]: 0.9 min
SMILES: O=c1[nH]cc(CO)c(=O)[nH]1 [5-HYDROXYMETHYLURACIL]

SMILES: O=C(O)CCCCCCCCCO [10-HYDROXYDECANOATE]
LC retention time [14]: 17.7 min
LC retention time [21]: 18.3 min
LC retention time [19]: 1.13 min
LC retention time [22]: 17.3 min

LC retention time [14]: 1.08 min
LC retention time [21]: 1.56 min
LC retention time [16]: 0.92 min
LC retention time [22]: 0.89 min
LC retention time [18]: 1.35 min
SMILES: Nc1ncnc2c1ncn2C1OC(COP(=O)(O)OP(=O)(O)OC2OC(CO)C(O)C(O)C2O)C(O)C1O (stereo not drawn) [ADENOSINE 5'-DIPHOSPHOGLUCOSE]

LC retention time [16]: 12.1 min
SMILES: Cc1cc2nc3c(=O)[nH]c(=O)nc-3n(CC(O)C(O)C(O)COP(=O)(O)OP(=O)(O)OCC3OC(n4cnc5c(N)ncnc54)C(O)C3O)c2cc1C (stereo not drawn) [FLAVIN ADENINE DINUCLEOTIDE]

LC retention time [15]: 2.43 min
LC retention time [20]: 1.41 min
LC retention time [2]: 1.42 min
LC retention time [17]: 15 min
LC retention time [12]: 4.86 min
SMILES: Cn1cncc1CC(NC(=O)CCN)C(=O)O [L-ANSERINE]

LC retention time [15]: 2.48 min
LC retention time [17]: 13 min
LC retention time [19]: 12.9 min
LC retention time [12]: 4.84 min
SMILES: NC(=O)CC[C@H](N)C(=O)O [L-GLUTAMINE]

LC retention time [2]: 1.79 min
LC retention time [17]: 11.4 min
LC retention time [23]: 3.33 min
LC retention time [12]: 4.68 min
LC retention time [13]: 1.54 min
SMILES: N[C@H](CO)Cc1cnc[nH]1 [L-HISTIDINOL]

LC retention time [17]: 4.84 min
LC retention time [19]: 5.01 min
SMILES: COC1OC(CO)C(O)C(O)C1O [METHYL BETA-D-GALACTOSIDE]

LC retention time [14]: 1.11 min
LC retention time [21]: 1.46 min
LC retention time [16]: 0.95 min
LC retention time [17]: 11.2 min
SMILES: CC(=O)NCC(=O)O [N-ACETYLGLYCINE]

LC retention time [3]: 1.78 min
LC retention time [17]: 14.5 min
LC retention time [5]: 0.89 min
LC retention time [12]: 12.7 min
SMILES: NC(N)=N[C@@H](CC(=O)O)C(=O)O [N-AMIDINO-L-ASPARTATE]

LC retention time [22]: 0.91 min
SMILES: O=CNCC(=O)O [N-FORMYLGLYCINE]

SMILES: CNCCc1c[nH]c2ccccc12 [N-METHYLTRYPTAMINE]
LC retention time [1]: 10.4 min
LC retention time [2]: 11.1 min
LC retention time [3]: 12.5 min
LC retention time [4]: 13.3 min
LC retention time [23]: 14.4 min
LC retention time [5]: 9.75 min
LC retention time [6]: 8.19 min
LC retention time [7]: 13.1 min
LC retention time [8]: 8.14 min
LC retention time [9]: 9.68 min
LC retention time [10]: 9.8 min
LC retention time [11]: 11.2 min
LC retention time [13]: 10.7 min

LC retention time [14]: 1.08 min
LC retention time [15]: 2.67 min
LC retention time [16]: 0.92 min
LC retention time [22]: 0.93 min
LC retention time [18]: 1.35 min
SMILES: O=c1[nH]c(=O)c2ncn(C3OC(COP(=O)(O)O)C(O)C3O)c2[nH]1 (stereo not drawn) [XANTHOSINE 5'-MONOPHOSPHATE]
